# Reference: paper PMC10041525, “New Dual Inhibitors of Bacterial Topoisomerases with Broad-Spectrum Antibacterial Activity and In Vivo Efficacy against Vancomycin-Intermediate Staphylococcus aureus” (Journal of Medicinal Chemistry, 2023)
# Where two headings read alike, the source gives them in different places.
# Test system: 100 A. baumannii strains (50 MDR, 50 non-MDR)
# Experiment: MIC broth microdilution at IHMA Europe, panel of 100 strains
# Format: cell-based
# Conditions: Acinetobacter baumannii, read-out: MIC
structure (smiles),measurement,setting,value
"C[C@@H](O)[C@H]1C(=O)N2C(C(=O)O)=C(S[C@@H]3CN[C@H](C(=O)N(C)C)C3)[C@H](C)[C@H]12 [Meropenem, meropenem]",MIC,"A. baumannii IHMA 1769393, Lithuania 2018, Non-MDR",0.25 µg/mL
same,MIC,"A. baumannii IHMA 1769782, Israel 2018, MDR",> 16 µg/mL
same,MIC,"A. baumannii IHMA 1769910, Israel 2018, Non-MDR",0.25 µg/mL
same,MIC,"A. baumannii IHMA 1790317, Czech Republic 2018, Non-MDR",0.12 µg/mL
same,MIC,"A. baumannii IHMA 1790916, Romania 2018, Non-MDR",≤ 0.06 µg/mL
same,MIC,"A. baumannii IHMA 1791877, Israel 2018, MDR",> 16 µg/mL
same,MIC,"A. baumannii IHMA 1792961, Jordan 2018, MDR",> 16 µg/mL
same,MIC,"A. baumannii IHMA 1795669, Tunisia 2018, Non-MDR",0.25 µg/mL
same,MIC,"A. baumannii IHMA 1814276, Lebanon 2018, MDR",> 16 µg/mL
same,MIC,"A. baumannii IHMA 1815198, Kuwait 2018, MDR",> 16 µg/mL
same,MIC,"A. baumannii IHMA 1815856, Israel 2018, MDR",> 16 µg/mL
same,MIC,"A. baumannii IHMA 1821468, South Africa 2018, Non-MDR",0.25 µg/mL
same,MIC,"A. baumannii IHMA 1829500, Georgia 2018, Non-MDR",0.12 µg/mL
same,MIC,"A. baumannii IHMA 1830924, United Kingdom 2018, Non-MDR",0.5 µg/mL
same,MIC,"A. baumannii IHMA 1849819, Kuwait 2018, MDR",> 16 µg/mL
same,MIC,"A. baumannii IHMA 1849829, Kuwait 2018, Non-MDR",0.12 µg/mL
same,MIC,"A. baumannii IHMA 1857118, Slovenia 2018, Non-MDR",0.25 µg/mL
same,MIC,"A. baumannii IHMA 1863631, France 2018, Non-MDR",0.12 µg/mL
same,MIC,"A. baumannii IHMA 1870054, United States 2018, Non-MDR",0.25 µg/mL
same,MIC,"A. baumannii IHMA 1884428, Italy 2018, Non-MDR",0.12 µg/mL
same,MIC,"A. baumannii IHMA 1884990, Germany 2018, Non-MDR",0.25 µg/mL
same,MIC,"A. baumannii IHMA 1900538, Turkey 2018, Non-MDR",0.12 µg/mL
same,MIC,"A. baumannii IHMA 1913773, Kenya 2018, Non-MDR",0.25 µg/mL
same,MIC,"A. baumannii IHMA 1926285, Qatar 2018, Non-MDR",≤ 0.06 µg/mL
same,MIC,"A. baumannii IHMA 1926288, Qatar 2018, MDR",> 16 µg/mL
same,MIC,"A. baumannii IHMA 1957343, Portugal 2019, Non-MDR",0.25 µg/mL
same,MIC,"A. baumannii IHMA 1963732, Turkey 2019, MDR",> 16 µg/mL
same,MIC,"A. baumannii IHMA 1967860, Spain 2019, Non-MDR",0.25 µg/mL
same,MIC,"A. baumannii IHMA 1971673, Latvia 2019, MDR",> 16 µg/mL
same,MIC,"A. baumannii IHMA 1975075, Israel 2019, Non-MDR",0.25 µg/mL
same,MIC,"A. baumannii IHMA 1977077, Kuwait 2019, Non-MDR",0.5 µg/mL
same,MIC,"A. baumannii IHMA 1983151, Greece 2019, MDR",> 16 µg/mL
same,MIC,"A. baumannii IHMA 1984665, Lithuania 2019, MDR",> 16 µg/mL
same,MIC,"A. baumannii IHMA 1986678, Turkey 2019, Non-MDR",0.25 µg/mL
same,MIC,"A. baumannii IHMA 1986738, Turkey 2019, MDR",> 16 µg/mL
same,MIC,"A. baumannii IHMA 1987162, Croatia 2019, MDR",> 16 µg/mL
same,MIC,"A. baumannii IHMA 1993615, Turkey 2019, MDR",> 16 µg/mL
same,MIC,"A. baumannii IHMA 1994284, Italy 2019, MDR",> 16 µg/mL
same,MIC,"A. baumannii IHMA 1995161, Czech Republic 2019, Non-MDR",0.25 µg/mL
same,MIC,"A. baumannii IHMA 1997936, Morocco 2019, Non-MDR",0.12 µg/mL
same,MIC,"A. baumannii IHMA 1999178, Belgium 2019, Non-MDR",0.25 µg/mL
same,MIC,"A. baumannii IHMA 2003279, Turkey 2019, MDR",> 16 µg/mL
same,MIC,"A. baumannii IHMA 2014367, Jordan 2019, Non-MDR",0.25 µg/mL
same,MIC,"A. baumannii IHMA 2014931, South Africa 2019, Non-MDR",1 µg/mL
same,MIC,"A. baumannii IHMA 2019315, Romania 2019, Non-MDR",0.12 µg/mL
same,MIC,"A. baumannii IHMA 2020360, Croatia 2019, MDR",> 16 µg/mL
same,MIC,"A. baumannii IHMA 2031511, Greece 2019, Non-MDR",0.12 µg/mL
same,MIC,"A. baumannii IHMA 2031524, Greece 2019, MDR",> 16 µg/mL
same,MIC,"A. baumannii IHMA 2034657, Tunisia 2019, Non-MDR",0.25 µg/mL
same,MIC,"A. baumannii IHMA 2035089, Serbia 2019, MDR",> 16 µg/mL
same,MIC,"A. baumannii IHMA 2035134, Serbia 2019, Non-MDR",0.25 µg/mL
same,MIC,"A. baumannii IHMA 2038976, Hungary 2019, MDR",> 16 µg/mL
same,MIC,"A. baumannii IHMA 2051503, Serbia 2019, MDR",> 16 µg/mL
same,MIC,"A. baumannii IHMA 2058329, Slovenia 2019, Non-MDR",0.12 µg/mL
same,MIC,"A. baumannii IHMA 2065587, France 2019, Non-MDR",0.12 µg/mL
same,MIC,"A. baumannii IHMA 2099294, United Kingdom 2019, Non-MDR",0.25 µg/mL
same,MIC,"A. baumannii IHMA 2129256, Qatar 2019, Non-MDR",0.12 µg/mL
same,MIC,"A. baumannii IHMA 2154584, Israel 2020, MDR",16 µg/mL
same,MIC,"A. baumannii IHMA 2155340, Kenya 2020, MDR",16 µg/mL
same,MIC,"A. baumannii IHMA 2156634, Turkey 2020, MDR",> 16 µg/mL
